Source: US20230271933A1, “HETEROCYCLIC IMMUNOMODULATOR” (Beijing Innocare Pharma Tech Co., Ltd., priority 2020, published 2023)

How the values were obtained:
[1] = test system: NCI-H929 human myeloma cells; assay: Inhibition of the proliferation of NCI-H929 cells (luminescent cell viability, CTG); assay type: cell-based; details: Homo sapiens, NCI-H929, 144 h, 6 days, CellTiter-Glo
Description: The effect of the compounds of the present invention on the proliferation of NCI-H929 human myeloma cells was evaluated by using a luminescent cell viability test experiment.
The compound was dissolved and diluted to 5 mM in DMSO, and then serially diluted 4-fold in DMSO to a minimum concentration of 0.31 μM. Each concentration was further diluted 50-fold with RPMI 1640 medium (Thermo Fisher, Cat. No. 72400-047). If the IC50 value of the compound was relatively low, the initial concentration of the compound could be lowered.
NCI-H929 cells (Nanjing Cobioer, Cat. No. CBP60243) were cultured in RPMI 1640 complete medium [containing 10% FBS (GIBCO, Cat. No. 10099-141) and 100 units/mL penicillin-streptomycin (Thermo Fisher, Cat. No. 15140122)]. Cells (15000 cells/mL) were plated in 90 μL of the complete medium in a 96-well plate and cultured overnight, and then 10 μL of the compound solution was added into each well. The cells were cultured in an incubator at 37° C. and 5% CO2 for 6 days. Then the cell culture plate was taken out and balanced to room temperature according to the instruction of the CellTilter-Glo (CTG) kit (Promega, Cat. No. G7572). 50 μL CTG reagent was added for complete lysis, the plate was placed at room temperature for 10 minutes, and the luminescence signal was read with a microplate reader (EnVision, Perkin Elmer). The group containing 0.2% DMSO medium was used as 0% inhibition. The XLfit software was used to plot the compound inhibition curve and calculate the inhibitory IC50 value.

[2] = test system: IL-2; assay: Stimulation of IL-2 secretion in anti-CD3-stimulated hPBMC (ELISA); assay type: cell-based, human; details: Homo sapiens, anti-CD3 antibody, 72 hours
Description: The immunomodulatory function of the compound of the present invention was evaluated by detecting its effect on the secretion amount of TNFα and IL-2 in cells from the human peripheral blood mononuclear cells (hPBMC) by the enzyme linked immunosorbent assay (ELISA) method.
The peripheral blood of healthy volunteers was collected by using EDTA anticoagulant tubes, and diluted with phosphate buffered saline (PBS) containing 2% fetal bovine serum (Gibco, Cat. No. 10099-141) in an equal volume ratio. 30 mL of the resulting diluted sample was transferred into a Sepmate-50 centrifuge tube (Stemcell, Cat. No. 86450) to which 15 mL of a density-gradient centrifugation liquid (Sigma, Cat. No. 10771) had been added in advance, and centrifuged at room temperature at 1200×g for 10 minutes. The liquid containing PBMC in the upper layer was transferred to a new 50-mL centrifuge tube, and centrifuged at room temperature at 300×g for 8 minutes. The supernatant was discarded, and the resulting PBMC was resuspended to 5×10^6/mL by using RPMI 1640 medium (Gibco, Cat. No. 72400-047). 80 μL of the resulting suspension was added to each well in a 96-well plate.
Each concentration was further diluted 50-fold with RPMI 1640 medium. 10 μL of each compound solution was added into the cells in the above 96-well plate. The 96-well plate was placed in an incubator, and the cells were cultured at 37° C. and 5% CO2 for 1 hour. 10 μL of LPS (Sigma, Cat. No. L-2880) with a concentration of 100 ng/mL was added, and the cells were continuously cultured in the incubator at 37° C. and 5% CO2 overnight. Supernatants were collected for the detection of TNFα.
The above-mentioned 96-well plate can also be placed in an incubator, and the cells were cultured at 37° C. and 5% CO2 for 1 hour. 10 μL of anti-CD3 antibody (Thermo Fisher, Cat. No. 14-0037-82) with a concentration of 500 ng/mL was added, and the cells were continuously cultured in the incubator at 37° C. and 5% CO2 for 72 hours. Supernatants were collected for the detection of IL-2.
TNFα and IL-2 were detected respectively according to each instruction of the ELISA kits (R&D, Cat. No. DY210 and DY202, respectively) to obtain the OD450 values for each well. The group containing 0.2% DMSO medium was used as 0% inhibition or stimulation. The XLfit software was used to plot the compound inhibition or stimulation curve and calculate the corresponding IC50 or EC50.

[3] = In vivo pharmacokinetic experiment in rats; details: male Sprague-Dawley rats, n = 3; for F: PO 5 mpk vs IV 1 mpk; for clearance / Vd / AUC(0-t) / Cmax: rat, plasma; for clearance / Vd: 1 mg/kg, IV 1 mpk; for Vd: read-out: VSS; for AUC(0-t) / Cmax: 5 mg/kg, PO 5 mpk
Description: The compound to be tested was dissolved in 5% DMA+20% Solutol+75% Saline vehicle to prepare a 0.5 mg/mL administration solution.
2 mL/kg of the administration solution was administered through the intravenous injection (IV) at a dose of 1 mg/kg to three fed male Sprague-Dawley rats, respectively. Blood samples were collected at 0.083, 0.25, 0.5, 1, 2, 4, 8 and 24 hours after administration. 10 mL/kg of the administration solution was administered by gavage (PO) at a dose of 5 mg/kg to other three fed male Sprague-Dawley rats, respectively. Blood samples were collected at 0.25, 0.5, 1, 2, 4, 8 and 24 hours after administration.
The concentration of the compound to be tested in plasma was obtained with the LC-MS/MS quantitative analysis with an API-4500 mass spectrometer, and the limit of quantitation (LOQ) for the plasma was 1 ng/mL.

IC50 [1] [nM]	EC50 [2] [nM]	F [3] [%]	clearance [3] [mL/min/kg]	Vd [3] [L/kg]	AUC(0-t) [3] [ng·h/mL]	Cmax [3] [ng/mL]	SMILES
0.6	26	30	2.2	0.36	13000	1440	C[C@H](c1ccc(COc2cccc3c2CN([C@H]2CCC(=O)NC2=O)C3=O)cc1)N1CCN(c2ncc(C#N)cc2F)CC1 [Compound 22, 6-(4-((R)-1-(4-(((2-((S)-2,6-dioxopiperidin-3-yl)-1-oxoisoindolin-4-yl)oxy)methyl)phenyl)-ethyl)piperazin-1-yl)-5-fluoronicotinonitrile]
0.1	2.3	14	1	0.27	11800	1800	C[C@H](c1ccc(COc2cccc3c2CN([C@H]2CCC(=O)NC2=O)C3=O)cc1)N1CCN(c2ccc(C#N)cc2F)CC1 [Compound 6, 4-(4-((R)-1-(4-(((2-((S)-2,6-dioxopiperidin-3-yl)-1-oxoisoindolin-4-yl)oxy)methyl)phenyl)ethyl)piperazin-1-yl)-3-fluorobenzonitrile]
0.1	5.5	27	5.2	0.56	4280	555	C[C@H](c1ccc(COc2cccc3c2CN([C@H]2CCC(=O)NC2=O)C3=O)cc1)N1CCN(c2ccc(C#N)cn2)CC1 [Compound 16, 6-(4-((R)-1-(4-(((2-((S)-2,6-dioxopiperidin-3-yl)-1-oxoisoindolin-4-yl)oxy)methyl)phenyl)-ethyl)piperazin-1-yl)nicotinonitrile]
0.04	3.8	18	14	0.65	1010	318	C[C@H](c1ccc(COc2cccc3c2CN([C@H]2CCC(=O)NC2=O)C3=O)cc1)N1CCN(c2ccc(C#N)nc2)CC1 [Compound 21, 5-(4-((R)-1-(4-(((2-((S)-2,6-dioxopiperidin-3-yl)-1-oxoisoindolin-4-yl)oxy)methyl)phenyl)ethyl)piperazin-1-yl)-2-cyanopyridine]
